From patent US8883782B2, “Spiro-tetracyclic ring compounds as beta-secretase modulators and methods of use” (Amgen Inc., priority 2010, dated 2014) come the findings set out here.

Test [1] deals with Beta Secretase enzyme (BACE) (Homo sapiens, UniProt P56817). In words: In vitro enzymatic BACE FRET (fluorescence resonance energy transfer) assay. The class given is biochemical. To be noted: average IC50, enzyme assay; read-out: BACE 1 FRET assay. A digest of the protocol: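 Buffer 0.05 M acetate pH 4.2, 10% DMSO final, 100 uM genapol (sub-CMC); start with 50 nM FRET substrate; 1 h incubation; Tris stop; fluorescence read.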

In test [2] the test system is Aβ40 in conditioned medium of cells stably expressing Amyloid Precursor Protein (APP). The experiment in a line: In vitro BACE cell-based assay (Aβ40 in conditioned medium, sandwich ELISA). To be noted: Homo sapiens, HEK293, average IC50; read-out: HEK cell assay. The essentials: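 Quantification relied on pAb40/6E10 sandwich ELISA with Europium fluorescence counts, and IC50 was fitted versus concentration.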
In general terms: In an ELISA, binding on a coated surface is turned into a signal by an enzyme label.

Molecules are shown by their SMILES.

Beta Secretase enzyme (BACE), sequence (P56817 46-501, species assumed): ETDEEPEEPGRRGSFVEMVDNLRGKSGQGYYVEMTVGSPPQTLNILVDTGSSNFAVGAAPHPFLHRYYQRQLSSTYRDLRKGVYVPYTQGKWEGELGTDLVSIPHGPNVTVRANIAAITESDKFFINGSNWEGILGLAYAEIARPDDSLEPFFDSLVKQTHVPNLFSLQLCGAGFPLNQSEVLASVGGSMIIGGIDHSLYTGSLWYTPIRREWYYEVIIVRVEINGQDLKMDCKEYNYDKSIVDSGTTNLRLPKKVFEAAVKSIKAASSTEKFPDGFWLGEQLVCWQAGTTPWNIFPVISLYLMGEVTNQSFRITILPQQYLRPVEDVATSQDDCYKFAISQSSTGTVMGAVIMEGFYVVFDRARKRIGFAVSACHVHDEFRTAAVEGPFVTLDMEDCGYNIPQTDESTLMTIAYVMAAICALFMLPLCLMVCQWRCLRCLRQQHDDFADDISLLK

On to `CC(C)(C)C#Cc1ccc2c(c1)[C@@]1(COC(N)=N1)c1cc(-c3ccnc(F)c3)ncc1O2` [Example 162, (5S)-7-(3,3-dimethyl-1-butyn-1-yl)-3-(2-fluoro-4-pyridinyl)spiro[chromeno[2,3-c]pyridine-5,4′-[1,3]oxazol]-2′-amine], for which the IC50 in test [1] stood at 23 nM; in test [2] it was 775 nM.

For the molecule `CC1(C#Cc2ccc3c(c2)[C@@]2(COC(N)=N2)c2cc(N4CCC(F)(F)C4)ncc2O3)COC1` [Example 163, (5S)-3-(3,3-difluoro-1-pyrrolidinyl)-7-((3-methyl-3-oxetanyl)ethynyl)spiro[chromeno[2,3-c]pyridine-5,4′-[1,3]oxazol]-2′-amine], the IC50 stood at 17.4 nM in test [1] and 124 nM in test [2].

In the case of `CC1(C#Cc2cc3c(cn2)Oc2ccc(-c4cccc(C#N)c4)cc2[C@@]32COC(N)=N2)COC1` [Example 164, 3-((5S)-2′-amino-3-((3-methyl-3-oxetanyl)ethynyl)spiro[chromeno[2,3-c]pyridine-5,4′-[1,3]oxazol]-7-yl)benzonitrile], the results for the IC50 in test [1] and in test [2] were 2.3 nM and 18.9 nM, respectively.

In the case of `NC1=N[C@@]2(CO1)c1cc(-c3cccc(Cl)c3)ccc1Oc1ncc(-c3cnccn3)cc12` [Example 166, (5S)-7-(3-chlorophenyl)-3-(2-pyrazinyl)spiro[chromeno[2,3-b]pyridine-5,4′-[1,3]oxazol]-2′-amine], the IC50 in test [1] is 1.8 nM; in test [2] it was 17.7 nM.

Consider `CC1(C#Cc2cnc3c(c2)[C@]2(COC(N)=N2)c2cc(-c4ccc(F)nc4)ccc2O3)COC1` [Example 167, (5S)-7-(6-fluoro-3-pyridinyl)-3-((3-methyl-3-oxetanyl)ethynyl)spiro[chromeno[2,3-b]pyridine-5,4′-[1,3]oxazol]-2′-amine], for which the IC50 in test [1] was found to be 2.6 nM; in test [2], 13.9 nM.

`CC1(C#Cc2cnc3c(c2)[C@]2(COC(N)=N2)c2cc(-c4cnccn4)ccc2O3)COC1` [Example 168, (5S)-3-((3-methyl-3-oxetanyl)ethynyl)-7-(2-pyrazinyl)spiro[chromeno[2,3-b]pyridine-5,4′-[1,3]oxazol]-2′-amine]: the IC50 was 3.3 nM in test [1] and 14.5 nM in test [2].

As to `N#Cc1cccc(-c2ccc3c(c2)[C@@]2(COC(N)=N2)c2cc(C4=CCOCC4)cnc2O3)c1` [Example 169, 3-((5S)-2′-amino-3-(3,6-dihydro-2H-pyran-4-yl)spiro[chromeno[2,3-b]pyridine-5,4′-[1,3]oxazol]-7-yl)benzonitrile], the IC50 in test [1] turned out to be 1.3 nM; in test [2], 4.5 nM.

Consider `NC1=N[C@@]2(CO1)c1cc(-c3cccc(Cl)c3F)ccc1Oc1ncc(C3=CCOCC3)cc12` [Example 170, (5S)-7-(3-chloro-2-fluorophenyl)-3-(3,6-dihydro-2H-pyran-4-yl)spiro[chromeno[2,3-b]pyridine-5,4′-[1,3]oxazol]-2′-amine], for which the results for the IC50 in test [1] and in test [2] were 1.5 nM and 18.3 nM, respectively.

With `NC1=N[C@@]2(CO1)c1cc(-c3cc(Cl)ccc3F)ccc1Oc1ncc(C3=CCCOC3)cc12` [Example 172, (5S)-7-(5-chloro-2-fluorophenyl)-3-(5,6-dihydro-2H-pyran-3-yl)spiro[chromeno[2,3-b]pyridine-5,4′-[1,3]oxazol]-2′-amine], the results for the IC50 in test [1] and in test [2] were 0.4 nM and 5.3 nM, respectively.

Consider `NC1=N[C@@]2(CO1)c1cc(-c3cccc(Cl)c3)ccc1Oc1ncc(C3=CCCOC3)cc12` [Example 173, (5S)-7-(3-chlorophenyl)-3-(5,6-dihydro-2H-pyran-3-yl)spiro[chromeno[2,3-b]pyridine-5,4′-[1,3]oxazol]-2′-amine], for which the figures for the IC50 in test [1] and in test [2] were 0.6 nM and 5 nM, respectively.

Regarding `NC1=N[C@@]2(CO1)c1cc(-c3cccnc3F)ccc1Oc1ncc([C@@H]3CCCOC3)cc12` [Example 174, (5S)-7-(2-fluoro-3-pyridinyl)-3-((3S)-tetrahydro-2H-pyran-3-yl)spiro[chromeno[2,3-b]pyridine-5,4′-[1,3]oxazol]-2′-amine], the figures for the IC50 in test [1] and in test [2] were 12.1 nM and 40 nM, respectively.

On to `CC1(/C=C/c2cnc3c(c2)[C@]2(COC(N)=N2)c2cc(-c4cccnc4F)ccc2O3)COC1` [Example 175, (5S)-7-(2-fluoro-3-pyridinyl)-3-((E)-2-(3-methyl-3-oxetanyl)ethenyl)spiro[chromeno[2,3-b]pyridine-5,4′-[1,3]oxazol]-2′-amine], for which the IC50 in test [1] amounted to 0.5 nM; in test [2], 1 nM.

Consider `CC1(/C=C/c2cnc3c(c2)[C@]2(COC(N)=N2)c2cc(-c4ccc(F)nc4)ccc2O3)COC1` [Example 176, (5S)-7-(6-fluoro-3-pyridinyl)-3-((E)-2-(3-methyl-3-oxetanyl)ethenyl)spiro[chromeno[2,3-b]pyridine-5,4′-[1,3]oxazol]-2′-amine], for which the IC50 in test [1] worked out at 1.2 nM; in test [2], 3.2 nM.

Turning to `CC1(/C=C/c2cnc3c(c2)[C@]2(COC(N)=N2)c2cc(-c4cc(Cl)ccc4F)ccc2O3)COC1` [Example 177, (5S)-7-(5-chloro-2-fluorophenyl)-3-((E)-2-(3-methyl-3-oxetanyl)ethenyl)spiro[chromeno[2,3-b]pyridine-5,4′-[1,3]oxazol]-2′-amine], the IC50 in test [1] came out at 0.4 nM; in test [2], 1.8 nM.

Turning to `NC1=N[C@@]2(CO1)c1cc(C#CC3CC3)ccc1Oc1ncc(N3CCC(F)(F)C3)cc12` [Example 178, (5S)-7-(cyclopropylethynyl)-3-(3,3-difluoro-1-pyrrolidinyl)spiro[chromeno[2,3-b]pyridine-5,4′-[1,3]oxazol]-2′-amine], the IC50 in test [1] came out at 3.1 nM; in test [2], 14.3 nM.

Consider `CC1(C)CN(c2cnc3c(c2)[C@]2(COC(N)=N2)c2cc(C#CC4CC4)ccc2O3)CCO1` [Example 179, (5S)-7-(cyclopropylethynyl)-3-(2,2-dimethyl-4-morpholinyl)spiro[chromeno[2,3-b]pyridine-5,4′-[1,3]oxazol]-2′-amine], for which the IC50 in test [1] worked out at 11.1 nM; in test [2], 64.1 nM.

Consider `Cn1ccc(-c2cnc3c(c2)[C@]2(COC(N)=N2)c2cc(C#CC(C)(C)C)ccc2O3)n1` [Example 180, (5S)-7-(3,3-dimethyl-1-butyn-1-yl)-3-(1-methyl-1H-pyrazol-3-yl)spiro[chromeno[2,3-b]pyridine-5,4′-[1,3]oxazol]-2′-amine], for which the IC50 was found to be 49.5 nM in test [1] and 165 nM in test [2].

Turning to `NC1=N[C@@]2(CO1)c1cc(C#CC3CC3)ccc1Oc1ncc(N3CCC(F)(F)CC3)cc12` [Example 181, (5S)-7-(cyclopropylethynyl)-3-(4,4-difluoro-1-piperidinyl)spiro[chromeno[2,3-b]pyridine-5,4′-[1,3]oxazol]-2′-amine], the IC50 in test [1] came out at 5.7 nM; in test [2], 27.1 nM.

`CC1(C)CCN(c2cnc3c(c2)[C@]2(COC(N)=N2)c2cc(C#CC4CC4)ccc2O3)C1` [Example 182, (5S)-7-(cyclopropylethynyl)-3-(3,3-dimethyl-1-pyrrolidinyl)spiro[chromeno[2,3-b]pyridine-5,4′-[1,3]oxazol]-2′-amine]: the results for the IC50 in test [1] and in test [2] were 3.1 nM and 22 nM, respectively.

For the molecule `Cn1ccc(-c2cnc3c(c2)[C@]2(COC(N)=N2)c2cc(C#CC4CC4)ccc2O3)n1` [Example 183, (5S)-7-(cyclopropylethynyl)-3-(1-methyl-1H-pyrazol-3-yl)spiro[chromeno[2,3-b]pyridine-5,4′-[1,3]oxazol]-2′-amine], the IC50 is 51.5 nM in test [1] and 189 nM in test [2].

In the case of `CC(C)CSc1cnc2c(c1)[C@]1(COC(N)=N1)c1cc(-c3cccnc3)ccc1O2` [Example 184, (5S)-3-((2-methylpropyl)sulfanyl)-7-(3-pyridinyl)spiro[chromeno[2,3-b]pyridine-5,4′-[1,3]oxazol]-2′-amine], the IC50 came out at 14.1 nM in test [1] and 294 nM in test [2].

For `COc1ccc2c(c1)[C@@]1(COC(N)=N1)c1cc(SCc3ccccc3)cnc1O2` [Example 185, (5S)-3-(benzylsulfanyl)-7-methoxyspiro[chromeno[2,3-b]pyridine-5,4′-[1,3]oxazol]-2′-amine], the IC50 in test [1] came out at 5060 nM; in test [2], 10000 nM.

Take `CC1(C#Cc2cnc3c(c2)[C@]2(COC(N)=N2)c2cc(-c4cncc(Cl)c4)ccc2O3)COC1` [Example 186, (5S)-7-(5-chloro-3-pyridinyl)-3-((3-methyl-3-oxetanyl)ethynyl)spiro[chromeno[2,3-b]pyridine-5,4′-[1,3]oxazol]-2′-amine]: the IC50 was 0.5 nM in test [1] and 3 nM in test [2].

Consider `CC1(C#Cc2cnc3c(c2)[C@]2(COC(N)=N2)c2cc(-c4cncc(C(F)(F)F)c4)ccc2O3)COC1` [Example 187, (5S)-3-((3-methyl-3-oxetanyl)ethynyl)-7-(5-(trifluoromethyl)-3-pyridinyl)spiro[chromeno[2,3-b]pyridine-5,4′-[1,3]oxazol]-2′-amine], for which the IC50 in test [1] came out at 2.9 nM; in test [2], 11.6 nM.

`CC1(C#Cc2cnc3c(c2)[C@]2(COC(N)=N2)c2cc(-c4ccc(F)c(F)c4)ccc2O3)COC1` [Example 188, (5S)-7-(3,4-difluorophenyl)-3-((3-methyl-3-oxetanyl)ethynyl)spiro[chromeno[2,3-b]pyridine-5,4′-[1,3]oxazol]-2′-amine]: the values for the IC50 in test [1] and in test [2] were 4.5 nM and 86.6 nM, respectively.

For the molecule `NC1=N[C@@]2(CO1)c1cc(-c3cccnc3F)ccc1Oc1c(F)cc(N3CCC4(CC3)COC4)cc12` [Example 189, (4S)-4′-fluoro-7′-(2-fluoro-3-pyridinyl)-2′-(2-oxa-7-azaspiro[3.5]non-7-yl)spiro[1,3-oxazole-4,9′-xanthen]-2-amine], the figures for the IC50 in test [1] and in test [2] were 0.8 nM and 7.8 nM, respectively.
